The assay addresses T1, CCR2 (Homo sapiens, UniProt P41597).
T1 construct: Membranes were prepared from THP-1 cells; endogenous in cells; host or cells: THP-1 cells (membrane preparation)
T1 sequence (P41597 1-360 isoform P41597-2): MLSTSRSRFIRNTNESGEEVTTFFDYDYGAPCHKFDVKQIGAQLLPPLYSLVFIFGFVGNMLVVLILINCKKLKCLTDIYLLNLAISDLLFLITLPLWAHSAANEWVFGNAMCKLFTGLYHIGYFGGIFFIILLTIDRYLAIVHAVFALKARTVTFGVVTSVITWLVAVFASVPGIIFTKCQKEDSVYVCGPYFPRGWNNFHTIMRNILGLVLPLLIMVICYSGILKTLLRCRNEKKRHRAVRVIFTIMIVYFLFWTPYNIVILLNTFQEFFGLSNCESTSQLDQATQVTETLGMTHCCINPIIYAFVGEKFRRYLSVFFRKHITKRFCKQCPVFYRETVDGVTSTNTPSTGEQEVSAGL
Put plainly: CCR2 receptor membrane binding assay ([125I]MCP-1, THP-1 cell membranes, SPA beads). Particulars: for Ki: dissociation constant hKi, [125I]MCP-1 binding to THP-1 membranes; for remaining activity at 10 µM: @ 10 μM test compound, THP-1 membranes, read-out: CCR2 % ctrl @ 10 μM. A digest of the protocol:
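Human THP-1 monocytic cell membranes, pre-coupled to WGA-PVT SPA beads, were incubated with compound and [125I]MCP-1 (ca. 25000 cpm) in 25 mM HEPES pH 7.2, 5 mM MgCl2, 0.5 mM CaCl2, 0.2% BSA, at 1% DMSO final. Bound radioactivity was counted after 8 h, and Ki was obtained by iterative mass-action fitting.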

For orientation: Ki means a measure of affinity in units of concentration, obtained from inhibition or displacement. A lower Ki goes with tighter binding.

Consider `Cc1c(NCC2CCC(c3nc4ccccc4[nH]3)CC2)ncnc1C(=O)N1CCC(N2CCC(N(C)S(C)(=O)=O)CC2)CC1` (stereo not shown) [Example 159r], for which the Ki was determined as 2.58 µM. This counts as single-digit micromolar. Compound `Cc1c(NCC2CCCC(c3ccc(Cl)cc3)C2)ncnc1C(=O)N1CCC(N2CCC(NS(C)(=O)=O)CC2)CC1` (stereo not shown) [Example 159ca] returned a Ki of 0.003 µM. Against the preceding compound, the Ki is about 860-fold lower. The same measure, in the same setting: the result for `Cc1c(NCC2CC(c3ccccc3)CO2)ncnc1C(=O)N1CCC(N2CCC(N(C)S(C)(=O)=O)CC2)CC1` (stereo not shown) [Example 159eb] reads 0.072 µM.

Consider `CCc1c(NCCc2ccc(Cl)c(Cl)c2)ncnc1C(=O)N1CCC(N2CCC(O)CC2)CC1` [Example 280], for which the remaining activity at 10 µM came out at 32% and the Ki was determined as 1.44 µM. The matching figures for `Cc1c(NCC2CCN(c3ccccc3)C2)ncnc1C(=O)N1CCC(N2CCOCC2)CC1` (stereo not shown) [Example 51]: 13% and 0.29 µM. For `Cc1c(NCc2ccc(Cl)c(F)c2)ncnc1C(=O)N1CCC(N2CCCCC2)CC1` [Example 134], the remaining activity at 10 µM was 23% and affinity was put at a Ki of 0.399 µM. In turn, `Cc1c(NCC2COc3ccc(Cl)cc3C2)ncnc1C(=O)N1CCC(N2CCC(N(C)S(C)(=O)=O)CC2)CC1` (stereo not shown) [Example 159sb] had a Ki of 0.021 µM. As to `Cc1c(NCc2ccc(C(C)(C)C)cc2)ncnc1C(=O)N1CCCC(N2CCCC2)CC1` (stereo not shown) [Example 163], the remaining activity at 10 µM was found to be 32% and the Ki was found to be 1.56 µM. The matching figures for `Cc1c(NCc2cccc(-c3ccccc3)c2)ncnc1C(=O)N1CCC(N2CCCOCC2)CC1` [Example 243]: 40% and 1.61 µM.

On to `Cc1c(NCc2ccc(C(C)(C)C)cc2)ncnc1C(=O)N1CCCN(C(C)C)CC1` [Example 287], for which the remaining activity at 10 µM was 33% and the Ki amounted to 2.55 µM.

For `Cc1c(NCc2ccc(C(C)(C)C)cc2)ncnc1C(=O)N1CCC(N2CCC(Cc3ccc(F)c(F)c3)CC2)CC1` [Example 228gl], the Ki turned out to be 0.537 µM. Compound `CNC(=O)C1CCN(C2CCN(C(=O)c3ncnc(NCC4CCCC(c5ccccc5)C4)c3C)CC2)CC1` (stereo not shown) [Example 159i] had a Ki of 0.024 µM. On the same count and under the same terms, the result for `Cc1c(NCc2ccc(C(C)(C)C)cc2)ncnc1C(=O)N1CCC(N2CCC3(CC2)CNC(=O)O3)CC1` [Example 228gj] reads 0.055 µM.

For `Cc1c(NCCCCc2ccccc2)ncnc1C(=O)N1CCC(N2CCC(O)CC2)CC1` [Example 15], the remaining activity at 10 µM was 14% and the affinity corresponds to a Ki of 0.2 µM. Consider `CNS(=O)(=O)C1CCN(C2CCN(C(=O)c3ncnc(NCc4ccc(Cl)c(Cl)c4)c3C)CC2)CC1` [Example 254], for which the remaining activity at 10 µM is 11% and the affinity, expressed as Ki, was 0.101 µM.

Consider `Cc1c(NCc2ccc(Cl)c(Cl)c2)ncnc1C(=O)N1CCC(N2CCCOCC2)CC1` [Example 242], for which the remaining activity at 10 µM came to 21% and the inhibition constant (Ki) amounted to 0.516 µM. Taken in the same sequence, the figures for `Cc1c(NCc2ccc(F)c(F)c2)ncnc1C(=O)N1CCC(N2CCOCC2)CC1` [Example 48] were 26% and 1.78 µM.

As for `Cc1c(C(=O)N2CCC(N3CCC(NS(C)(=O)=O)CC3)CC2)ccnc1NCc1ccc(Cl)c(Cl)c1` [Example 274], the remaining activity at 10 µM came to 48% and the affinity, expressed as Ki, was 4.42 µM.

As for `CCc1c(NCc2cccc(-c3ccccc3)c2)ncnc1C(=O)N1CCC(N2CCOCC2)CC1` [Example 276], the remaining activity at 10 µM was determined as 23% and the affinity corresponds to a Ki of 1.84 µM. The matching figures for `Cc1nc(NCc2ccc(C(F)(F)F)c(Cl)c2)c(C)c(C(=O)N2CCC(N3CCC(N(C)S(C)(=O)=O)CC3)CC2)n1` [Example 81]: 8% and 0.052 µM.

`Cc1c(NCC2CCCC(C(C)C)C2)ncnc1C(=O)N1CCC(N2CCC(N(C)S(C)(=O)=O)CC2)CC1` (stereo not shown) [Example 159zb]: the Ki is 0.015 µM. With `CCS(=O)(=O)NC1CCN(C2CCN(C(=O)c3ncnc(NCc4ccc(Cl)c(Cl)c4)c3C)CC2)CC1` [Example 195], the remaining activity at 10 µM worked out at 14% and the Ki worked out at 0.141 µM. As for `Cc1c(NCc2cccc(-c3ccccc3)c2)ncnc1C(=O)N1CCC(N2CCC(O)C2)CC1` (stereo not shown) [Example 239], the remaining activity at 10 µM was found to be 33% and the affinity, expressed as Ki, was 2.32 µM. Consider `CCS(=O)(=O)N(C)C1CCN(C2CCN(C(=O)c3ncnc(NCc4ccc(Cl)c(F)c4)c3C)CC2)CC1` [Example 39], for which the remaining activity at 10 µM turned out to be 2% and the affinity, expressed as Ki, was 0.036 µM.

Turning to `CO[C@@H]1COCC[C@@H]1NC1CCN(C(=O)c2nc(C)nc(NC[C@H]3C[C@@H](c4ccccc4)C3)c2C)CC1` [Example 275dc], the Ki stood at 0.011 µM. This lies in the double-digit nanomolar range.

Consider `CNC(=O)C[C@@H]1CCCN1C1CCN(C(=O)c2ncnc(NCc3ccc(C(C)(C)C)cc3)c2C)CC1` [Example 215], for which the remaining activity at 10 µM was found to be 42% and the inhibition constant (Ki) turned out to be 2.15 µM.

On to `Cc1ccc(CNc2ncnc(C(=O)N3CCC(N4CCC(O)CC4)CC3)c2C)cc1C` [Example 31], for which the remaining activity at 10 µM amounted to 28% and the Ki worked out at 0.79 µM. The matching figures for `Cc1ccc(CNc2ncnc(C(=O)N3CCC(N4CCOCC4)CC3)c2C)cc1Cl` [Example 43]: 17% and 0.566 µM. Taken in the same sequence, the figures for `Cc1c(NCCc2ccc(Cl)c(Cl)c2)ncnc1C(=O)N1CCC(N2CCOC(C)C2)CC1` (stereo not shown) [Example 237] were 9% and 0.133 µM. Consider `Cc1c(NCC2CCC(c3ccc(Cl)cc3)C2)ncnc1C(=O)N1CCC(N2CCC(N(C)S(C)(=O)=O)CC2)CC1` (stereo not shown) [Example 159c], for which affinity was put at a Ki of 0.013 µM. Still for that read-out and setting: then `Cc1c(NCC2CCCC(c3ccc(F)cc3)C2)ncnc1C(=O)N1CCC(N2CCC(N(C)S(C)(=O)=O)CC2)CC1` (stereo not shown) [Example 159z], with 0.011 µM. Turning to `Cc1c(NCc2ccc(Cl)c(C(F)(F)F)c2)ncnc1C(=O)N1CCC(N2CCC(O)CC2)CC1` [Example 125], the remaining activity at 10 µM was 25% and the Ki is 0.446 µM. Taken in the same sequence, the figures for `Cc1noc(C2CCN(C3CCN(C(=O)c4ncnc(NCc5ccc(C(C)(C)C)cc5)c4C)CC3)CC2)n1` [Example 213] were 14% and 0.43 µM. Take `Cc1c(NCCc2ccc(Cl)cc2)ncnc1C(=O)N1CCC(N2CCCCC2)CC1` [Example 141]: the remaining activity at 10 µM turned out to be 7% and the Ki turned out to be 0.422 µM. Consider `Cc1c(NCC2Cc3ccccc3C2)ncnc1C(=O)N1CCC(N2CCC(O)CC2)CC1` [Example 23], for which the remaining activity at 10 µM is 7% and the affinity, expressed as Ki, was 0.169 µM. For `Cc1c(NCCc2ccc(Cl)c(Cl)c2)ncnc1C(=O)N1CCC(N2CCC[C@H](NS(C)(=O)=O)C2)CC1` [Example 169], the remaining activity at 10 µM worked out at 54% and the affinity, expressed as Ki, was 2.29 µM. Taken in the same sequence, the figures for `CNC(=O)[C@H]1CCCN(C2CCN(C(=O)c3ncnc(NCCc4ccc(Cl)c(Cl)c4)c3C)CC2)C1` [Example 176] were 31% and 0.648 µM.

`Cc1c(NCCc2ccc(C(F)(F)F)cc2)ncnc1C(=O)N1CCC(N2CCC(O)CC2)CC1` [Example 12]: the remaining activity at 10 µM is 29% and affinity was put at a Ki of 0.664 µM. Taken in the same sequence, the figures for `Cc1c(NC[C@@H]2C[C@H]2c2ccccc2)ncnc1C(=O)N1CCC(N2CCC(N(C)S(C)(=O)=O)CC2)CC1` [Example 152] were 7% and 0.044 µM. The matching figures for `Cc1c(NCc2cccc(-c3ccccc3)c2)ncnc1C(=O)N1CCC(N2CCC(N(C)C)CC2)CC1` [Example 236]: 14% and 0.175 µM. In turn, `Cc1nc(NC[C@H]2CC[C@H](c3cccc(C(F)(F)F)c3)O2)c(C)c(C(=O)N2CCC(N3CCC(N(C)S(C)(=O)=O)CC3)CC2)n1` [Example 159ga] had a Ki of 0.028 µM. On to `Cc1c(NCc2ccc(C(C)(C)C)cc2)ncnc1C(=O)N1CCC(N2CCC(n3c(C)nnc3C)CC2)CC1` [Example 212], for which the remaining activity at 10 µM came to 24% and the Ki came out at 0.731 µM.

With `Cc1c(NCC2CCN(c3ccccc3)CC2)ncnc1C(=O)N1CCC(N2CCCCC2)CC1` [Example 130], the remaining activity at 10 µM stood at 50% and the affinity corresponds to a Ki of 4.27 µM. On to `Cc1nc(NCC2Cc3ccccc3C2)c(C)c(C(=O)N2CCC(N3CCC(N(C)S(C)(=O)=O)CC3)CC2)n1` [Example 86], for which the remaining activity at 10 µM came out at 3% and affinity was put at a Ki of 0.039 µM. The matching figures for `Cc1c(NCC2CCCCC2)ncnc1C(=O)N1CCC(N2CCC(O)CC2)CC1` [Example 108]: 20% and 0.627 µM. As for `Cc1c(NCc2ccc(C(C)(C)C)cc2)ncnc1C(=O)N1CCCC(N2CCC(N(C)S(C)(=O)=O)CC2)CC1` (stereo not shown) [Example 161], the remaining activity at 10 µM was found to be 30% and the affinity, expressed as Ki, was 2 µM. `Cc1c(NCC2CCCC(c3ccc(Cl)cc3)C2)ncnc1C(=O)N1CCC(N2CCC(N(C)S(C)(=O)=O)CC2)CC1` (stereo not shown) [Example 159da] displayed a Ki of 0.005 µM. For `Cc1c(NCc2ccc(Cl)c(Cl)c2)ncnc1C(=O)N1CCC(N2CCC(O)C2)CC1` (stereo not shown) [Example 238], the remaining activity at 10 µM was 14% and affinity was put at a Ki of 0.239 µM. As for `Cc1c(C(=O)N2CCC(N3CCC(N(C)S(C)(=O)=O)CC3)CC2)ncnc1-c1ccc(C(C)(C)C)cc1` [Example 289], the remaining activity at 10 µM was determined as 34% and the Ki was found to be 1.67 µM.

For the origin of these results see patent US8835440B2, “Cyclic pyrimidin-4-carboxamides as CCR2 receptor antagonists for treatment of inflammation, asthma and COPD” (Boehringer Ingelheim International GmbH, priority 2008, dated 2014).
